Data: patent US10562935B2, “Stapled peptides and uses thereof” (London Health Sciences Centre Research Inc., priority 2015, dated 2020)
Bridges are numbered along the chain shown (N, C = ends).

Columns and labels:
[1] = Direct HA-binding ELISA of biotinylated peptides on HA coated plates (Example 4); set-up: key to HA binding: absorbance (color) read at 450 nm; settings: for HA binding: as repeated in tables 16, 18, 20; for HA direct binding (OD): optical density, summary tables 15, 17, 19
Experimental: Each of these peptides was biotinylated at its amino-terminus, and an AEEA spacer was included to separate the peptide sequence from the biotin molecule.
HA coated plates were purchased (ECHELON). Peptides were dissolved in 2 mM PBS to constant molarity, aliquoted and stored at −20° C. until used in assays. 7 kDa biotin-labeled RHAMM (SEQ ID NO: 1) was synthesized and used as a positive control in these assays. Biotin labeled peptides were added to the HA coated wells (n=3 replicates/peptide) at either 0.8 or 0.08 μM and then incubated with shaking overnight at 4° C. Wells were washed free of excess unbound peptides using 200 μl PBS (4 times). 100 μl of Streptavidin-HRP was then added to each well and the plate was incubated at room temperature for 1 hr. The plate was then washed with 200 μl PBS/well 4 times and TMB Liquid Substrate System for ELISA (Sigma) was added to each well, incubated for 5-10 min at room temperature and color read at 450 nm Plate Reader (BioTek, SYNERGY H4, Hybrid Reader).
Direct HA-binding results for the biotinylated equivalents of compounds 132 and 150-161 are show in FIG. 39, and results for compounds 265-268 and 275-278 are shown in FIG. 40.

[2] = Function blocking score: total percent inhibition over migration, invasion, inflammation and fibrosis assays divided by number of assays; format: cell-based; settings: for Function blocking score (FBS): total percent inhibition for all assays tested divided by number of assays
Experimental: As documented in the Examples hereinabove, a variety of cyclized peptides were produced that contained the HA-binding domain 1 (HABD1), HA-binding domain 2 (HABD2), or both HABD1 and HABD2. These peptides were evaluated for helicity, direct HA binding and in a number of cell-based bioassays (effects on migration, invasion, NFkB activation, and TGFβ1 production) that are relevant to inflammation and fibrosis. The relationships amongst helicity, HA-binding, and biofunction were evaluated. Peptides were divided into three groups for this analysis: (1) peptides containing HABD1 (“HABD1”); (2) peptides containing HABD2 (“HABD2”); and peptides containing most or all of HABD1 and all of HABD2 (“HABD1+HABD2”). R^2 values were calculated to quantify the relationships between helicity, HA-binding, and biofunction were evaluated.
The results of this analysis for the HABD1 peptides are shown below in Tables 15 and 16. Table 16 provides a function blocking scores for each of the tested peptides and provides R^2 values showing the relationship between HA binding and helicity (“HA binding vs. CD”), HA binding and function-blocking score (“HA binding vs. FBS”) and helicity vs. function-blocking score (“CD vs. FBS”). The same type of summaries are provided for the HABD2 peptides in Tables 17 and 18 below, and for the HABD1+HABD2 peptides in Tables 19 and 20 below.
Function blocking scores were calculated as the total percent inhibition achieved by the peptide for all assays the peptides were tested in, divided by the number of assays. Assays included migration, invasion, inflammation and fibrosis assays. Not all peptides were tested all of the assays. All peptides were included for deriving R^2 values (Pearson's formula).

[3] = test system: RHAMM-overexpressing (LR21) cells; experiment: Cell invasion assay (Boyden chamber with MATRIGEL, Chemicon ECM555); format: cell-based; settings: for inhibition of cellular invasion (in words): 10 ng/mL peptide, 20 hours, compared to 30% serum control; for Invasion (% inhib.): % inhibition relative to positive control, 10 ng/mL of peptide
Experimental: Compounds 132, 133, 135, 150-153, 156, 265-269, and 275-278 were evaluated for their ability to inhibit cellular invasion. Invasion assays were performed using Chemicon Assay Kits ECM555 (Invasion); Billerica, Mass., USA) according to the manufacturer's protocol. Invasion assays are performed in an identical manner as the migration assays described above in Example 5, except that cells are required to invade through a layer of extracellular matrix (MATRIGEL) coating the filter that separates the upper and lower Boyden chambers. Briefly, sub-confluent cultures of RHAMM-overexpressing (LR21) cells were serum starved overnight before plating 7.5×10^4 cells in the upper chamber of a Boyden chamber either in the presence or absence of 10 ng/mL of peptide. 30% fetal bovine serum in DMEM was used as the chemo-attractant in the lower chamber. The number of cells that had crossed the membrane after 20 hours was assessed using the CYQUANT® GR Dye and lysis buffer solution provided in the kit. Fluorescence was measured with a fluorescent plate reader using 480/520 nm filter set.
Values the mean and SDM of n=3 replicates. *p<0.05, **p<0.01, ***p<0.001 All statistics compared to 30% serum control. In FIG. 49, where bars are labeled with two compound numbers (“152/135”) this means that the data were pooled for the indicated compound, i.e., for the non-acetylated and acetylated versions of the indicated peptide.

Substance	HA binding [1]	HA direct binding (OD) [1]	Function blocking score (FBS) [2]	inhibition of cellular invasion (in words) [3]	Invasion (% inhib.) [3]	direct HA binding (in words) ([1]; biotinylated equivalents of the named compounds, 0.8 or 0.08 μM, vs PBS only control)	function blocking (in words) [2]
Ac-(cyclo-4,8)-NLK[EKIKK]VVKLKDE-NH2 (Ac-NLKEKIKKVVKLKDE-NH2; lactam 4-8; SMILES CC[C@H](C)[C@@H]1NC(=O)[C@H](CCCCN)NC(=O)[C@@H](NC(=O)[C@H](CCCCN)NC(=O)[C@H](CC(C)C)NC(=O)[C@H](CC(N)=O)NC(C)=O)CCC(=O)NCCCC[C@@H](C(=O)N[C@H](C(=O)N[C@H](C(=O)N[C@@H](CCCCN)C(=O)N[C@@H](CC(C)C)C(=O)N[C@@H](CCCCN)C(=O)N[C@@H](CC(=O)O)C(=O)N[C@@H](CCC(=O)O)C(N)=O)C(C)C)C(C)C)NC(=O)[C@H](CCCCN)NC1=O) [Compound 157]	0.02	0.02 OD	8.6				
Ac-(cyclo-4,8)-VSK[ERSQK]VKRKQN-NH2 (Ac-VSKERSQKVKRKQN-NH2; lactam 4-8; SMILES CC(=O)N[C@H](C(=O)N[C@@H](CO)C(=O)N[C@@H](CCCCN)C(=O)N[C@H]1CCC(=O)NCCCC[C@@H](C(=O)N[C@H](C(=O)N[C@@H](CCCCN)C(=O)N[C@@H](CCCNC(=N)N)C(=O)N[C@@H](CCCCN)C(=O)N[C@@H](CCC(N)=O)C(=O)N[C@@H](CC(N)=O)C(N)=O)C(C)C)NC(=O)[C@H](CCC(N)=O)NC(=O)[C@H](CO)NC(=O)[C@H](CCCNC(=N)N)NC1=O)C(C)C) [Compound 150]	0.015	0.015 OD	27	significantly inhibited cellular invasion	79 % inhib.		
Ac-(cyclo-5,9)-NLKQ[EIKHK]VKLKDE-NH2 (Ac-NLKQEIKHKVKLKDE-NH2; lactam 5-9; SMILES CC[C@H](C)[C@@H]1NC(=O)[C@@H](NC(=O)[C@H](CCC(N)=O)NC(=O)[C@H](CCCCN)NC(=O)[C@H](CC(C)C)NC(=O)[C@H](CC(N)=O)NC(C)=O)CCC(=O)NCCCC[C@@H](C(=O)N[C@H](C(=O)N[C@@H](CCCCN)C(=O)N[C@@H](CC(C)C)C(=O)N[C@@H](CCCCN)C(=O)N[C@@H](CC(=O)O)C(=O)N[C@@H](CCC(=O)O)C(N)=O)C(C)C)NC(=O)[C@H](Cc2c[nH]cn2)NC(=O)[C@H](CCCCN)NC1=O) [Compound 158]	0.005	0.005 OD	22				
Ac-(cyclo-5,9)-VSKL[ESQLK]KRKQN-NH2 (Ac-VSKLESQLKKRKQN-NH2; lactam 5-9; SMILES CC(=O)N[C@H](C(=O)N[C@@H](CO)C(=O)N[C@@H](CCCCN)C(=O)N[C@@H](CC(C)C)C(=O)N[C@H]1CCC(=O)NCCCC[C@@H](C(=O)N[C@@H](CCCCN)C(=O)N[C@@H](CCCNC(=N)N)C(=O)N[C@@H](CCCCN)C(=O)N[C@@H](CCC(N)=O)C(=O)N[C@@H](CC(N)=O)C(N)=O)NC(=O)[C@H](CC(C)C)NC(=O)[C@H](CCC(N)=O)NC(=O)[C@H](CO)NC1=O)C(C)C) [Compound 151]	0.01	0.01 OD	20		0 % inhib.		
Ac-(cyclo-6,10)-NLKQK[EKHVK]KLKDE-NH2 (Ac-NLKQKEKHVKKLKDE-NH2; lactam 6-10; SMILES CC(=O)N[C@@H](CC(N)=O)C(=O)N[C@@H](CC(C)C)C(=O)N[C@@H](CCCCN)C(=O)N[C@@H](CCC(N)=O)C(=O)N[C@@H](CCCCN)C(=O)N[C@H]1CCC(=O)NCCCC[C@@H](C(=O)N[C@@H](CCCCN)C(=O)N[C@@H](CC(C)C)C(=O)N[C@@H](CCCCN)C(=O)N[C@@H](CC(=O)O)C(=O)N[C@@H](CCC(=O)O)C(N)=O)NC(=O)[C@H](C(C)C)NC(=O)[C@H](Cc2c[nH]cn2)NC(=O)[C@H](CCCCN)NC1=O) [Compound 159]	0.009	0.009 OD	17				
Ac-(cyclo-6,10)-VSKLR[EQLVK]RKQN-NH2 (Ac-VSKLREQLVKRKQN-NH2; lactam 6-10; SMILES CC(=O)N[C@H](C(=O)N[C@@H](CO)C(=O)N[C@@H](CCCCN)C(=O)N[C@@H](CC(C)C)C(=O)N[C@@H](CCCNC(=N)N)C(=O)N[C@H]1CCC(=O)NCCCC[C@@H](C(=O)N[C@@H](CCCNC(=N)N)C(=O)N[C@@H](CCCCN)C(=O)N[C@@H](CCC(N)=O)C(=O)N[C@@H](CC(N)=O)C(N)=O)NC(=O)[C@H](C(C)C)NC(=O)[C@H](CC(C)C)NC(=O)[C@H](CCC(N)=O)NC1=O)C(C)C) [Compound 152]	0.005		47	significantly inhibited cellular invasion		bound poorly to HA	strong function blocker
Ac-(cyclo-7,11)-NLKQKI[EHVVK]LKDE-NH2 (Ac-NLKQKIEHVVKLKDE-NH2; lactam 7-11; SMILES CC[C@H](C)[C@H](NC(=O)[C@H](CCCCN)NC(=O)[C@H](CCC(N)=O)NC(=O)[C@H](CCCCN)NC(=O)[C@H](CC(C)C)NC(=O)[C@H](CC(N)=O)NC(C)=O)C(=O)N[C@H]1CCC(=O)NCCCC[C@@H](C(=O)N[C@@H](CC(C)C)C(=O)N[C@@H](CCCCN)C(=O)N[C@@H](CC(=O)O)C(=O)N[C@@H](CCC(=O)O)C(N)=O)NC(=O)[C@H](C(C)C)NC(=O)[C@H](C(C)C)NC(=O)[C@H](Cc2c[nH]cn2)NC1=O) [Compound 160]	0.004	0.004 OD	0				
Ac-(cyclo-7,11)-VSKLRS[ELVKK]KQN-NH2 (Ac-VSKLRSELVKKKQN-NH2; lactam 7-11; SMILES CC(=O)N[C@H](C(=O)N[C@@H](CO)C(=O)N[C@@H](CCCCN)C(=O)N[C@@H](CC(C)C)C(=O)N[C@@H](CCCNC(=N)N)C(=O)N[C@@H](CO)C(=O)N[C@H]1CCC(=O)NCCCC[C@@H](C(=O)N[C@@H](CCCCN)C(=O)N[C@@H](CCC(N)=O)C(=O)N[C@@H](CC(N)=O)C(N)=O)NC(=O)[C@H](CCCCN)NC(=O)[C@H](C(C)C)NC(=O)[C@H](CC(C)C)NC1=O)C(C)C) [Compound 153]	0.08	0.08 OD	29	significantly inhibited cellular invasion	58 % inhib.		
Ac-(cyclo-8,12)-NLKQKIK[EVVKK]KDE-NH2 (Ac-NLKQKIKEVVKKKDE-NH2; lactam 8-12; SMILES CC[C@H](C)[C@H](NC(=O)[C@H](CCCCN)NC(=O)[C@H](CCC(N)=O)NC(=O)[C@H](CCCCN)NC(=O)[C@H](CC(C)C)NC(=O)[C@H](CC(N)=O)NC(C)=O)C(=O)N[C@@H](CCCCN)C(=O)N[C@H]1CCC(=O)NCCCC[C@@H](C(=O)N[C@@H](CCCCN)C(=O)N[C@@H](CC(=O)O)C(=O)N[C@@H](CCC(=O)O)C(N)=O)NC(=O)[C@H](CCCCN)NC(=O)[C@H](C(C)C)NC(=O)[C@H](C(C)C)NC1=O) [Compound 161]	0.009	0.009 OD	22				
